Test [1] relates to HL-60. In words: Induction of apoptosis in human HL-60 cells assessed as live cells at 8 uM after 48 hrs by Annexin V-PE/7-AAD dual staining based flow cytometry (reference value: 90.1 to 90.7%). It is filed as functional. For orientation: A flow cytometer gives signals particle by particle.
In test [2] the test system is HL-60. In words: Induction of apoptosis in human HL-60 cells assessed as necrotic cells at 6 uM in presence of 3-MA after 48 hrs by Annexin V-PE/7-AAD dual staining based flow cytometry (reference value: 2.62%). It counts as functional.
The test system of test [3] is HL-60. In words: Cell cycle arrest in human HL-60 cells assessed as accumulation of cells at G2/M phase at 8 uM incubated for 48 hrs by propidium iodide based flow cytometric analysis (reference value: 6.61%). It is filed as functional.
Test [4] has as its system Salmonella enterica subsp. enterica. In words: Antibacterial activity against Salmonella enterica subsp.enterica ATCC13076 assessed as growth inhibition after 20 hrs by broth microdilution method. It is filed as functional.
The next test has as its system Listeria innocua. In words: Antibacterial activity against Listeria innocua LMG11387 assessed as growth inhibition after 20 hrs by broth microdilution method. It counts as functional. In general terms: In broth dilution the organism is exposed to a series of concentrations in liquid medium.
Test [5] relates to HL-60. The test can be described thus: Induction of apoptosis in human HL-60 cells assessed as early apoptotic cells at 6 uM in presence of 3-MA after 48 hrs by Annexin V-PE/7-AAD dual staining based flow cytometry (reference value: 3.14%). It counts as functional.
The next test relates to Jurkat. The test can be described thus: cells. Conditions: Homo sapiens, 72 h. It counts as functional, cell-based.
Test [6] has as its system HL-60. In words: Induction of apoptosis in human HL-60 cells assessed as late apoptotic cells at 10 uM in presence of 3-MA after 48 hrs by Annexin V-PE/7-AAD dual staining based flow cytometry (reference value: 3.12%). It counts as functional.
Another test has as its system Z-138. In words: cells. It counts as functional, cell-based. As to conditions: Homo sapiens, Z-138, 72 h.
The test system of the next test is LN-229. The test can be described thus: Antiproliferative activity against human LN-229 cells assessed as inhibition of cell viability measured after 72 hrs by colorimetric MTS viability assay. Conditions: LN-229, 72 h. It is filed as functional, cell-based. For orientation: Tetrazolium dyes change colour on reduction, which living cells bring about.
Test [7] has as its system HL-60. The test can be described thus: Induction of apoptosis in human HL-60 cells assessed as necrotic cells at 8 uM after 48 hrs by Annexin V-PE and 7AAD based flow cytometry (reference value: 2.64 to 3.64%). It counts as functional.
The test system of test [8] is HL-60. In words: Induction of autophagy in human HL-60 cells assessed as fold increase in MDC fluorescence intensity at 10 uM measured after 48 hrs by flow cytometry relative to control. It counts as functional.
Test [9] has as its system HL-60. In words: Induction of autophagy in human HL-60 cells assessed as fold increase in MDC fluorescence intensity at 8 uM measured after 48 hrs by flow cytometry relative to control. It is filed as functional.
Test [10] deals with HL-60. The test can be described thus: Induction of apoptosis in human HL-60 cells assessed as late apoptotic cells at 10 uM after 48 hrs by Annexin V-PE/7-AAD dual staining based flow cytometry (reference value: 3.93%). It counts as functional.
Another test has as its system Rec1. In words: cells. It is filed as functional, cell-based. As to conditions: Homo sapiens, Rec1, 72 h.
The next test concerns HCT-116. In words: Antiproliferative activity against human HCT-116 cells assessed as inhibition of cell viability measured after 72 hrs by colorimetric MTS viability assay. It counts as functional, cell-based. Conditions: HCT-116, 72 h.
The test system of test [11] is HL-60. In words: Induction of apoptosis in human HL-60 cells assessed as late apoptotic cells at 6 uM after 48 hrs by Annexin V-PE/7-AAD dual staining based flow cytometry (reference value: 3.93%). It is filed as functional.
Test [12] has as its system HL-60. In words: Induction of apoptosis in human HL-60 cells assessed as early apoptotic cells at 6 uM after 48 hrs by Annexin V-PE/7-AAD dual staining based flow cytometry (reference value: 1.72 to 3.25%). It counts as functional.
Test [13] concerns HL-60. In words: Induction of apoptosis in human HL-60 cells assessed as necrotic cells at 10 uM after 48 hrs by Annexin V-PE/7-AAD dual staining based flow cytometry (reference value: 2.64 to 3.64%). It counts as functional.
Another test has as its system NCI-H460. In words: cells. It is filed as functional, cell-based. As to conditions: Homo sapiens, NCI-H460, 72 h.

Usually MIC50 stands for the lowest concentration that inhibits either 50% of growth or 50% of the strains tested, depending on the study. By IC50 is commonly meant the midpoint of a concentration-inhibition curve.

Molecules are shown by their SMILES. ≈ marks a conversion by molar mass, not a printed value. Calls of active or inactive are those of the source. The calls are words filed in the database; no cut-off is given here.

Description for Jurkat: Cytotoxicity against human Jurkat cells assessed as inhibition of cell viability measured after 72 hrs by real-time IncuCyte proliferation analysis
Description for NCI-H460: Antiproliferative activity against human NCI-H460 cells assessed as inhibition of cell viability measured after 72 hrs by colorimetric MTS viability assay
Description for Rec1: Cytotoxicity against human REC1 cells assessed as inhibition of cell viability measured after 72 hrs by real-time IncuCyte proliferation analysis
Description for Z-138: Antiproliferative activity against human Z138 cells assessed as inhibition of cell viability measured after 72 hrs by real-time IncuCyte proliferation analysis

Take `COc1ccc2[nH]cc(CCn3nnc4c3C(C)(C)[C@@H]3CC[C@]5(C)[C@H](CC=C6[C@@H]7CC(C)(C)CC[C@]7(C(=O)O)CC[C@]65C)[C@@]3(C)C4)c2c1`: the Activity is 50.1% with HL-60 [1]; 0.358% in the test with HL-60 [2]; 5.02% in the test with HL-60 [3]; 3.91% in the test on HL-60 [5]; 30.8% in the test with HL-60 [6]; 0.415% with HL-60 [7]. The Activity in the test on HL-60 [10] is listed as 63.2%; in the test on HL-60 [11], 6.26%; in the test with HL-60 [12] it was 3.06%; in the test with HL-60 [13], 0.628%. For the same molecule, the MIC50 result in test [4] was “inactive”. Besides, the MIC50 with Listeria innocua was 103 µg/mL (≈ 158 µM). For the same molecule, the IC50 is 8.7 µM in the test on Jurkat; 11.3 µM in the test with Z-138; 44.1 µM in the test on LN-229; 6.2 µM in the test with Rec1; 15.2 µM in the test on HCT-116; 12.5 µM with NCI-H460. In addition, the entries for the “fold change (FC)” value in the test on HL-60 [8] and in the test with HL-60 [9] were 2 and 1.72, respectively.

Values taken from ChEMBL document CHEMBL4828727, “Antibacterial and antitumoral properties of 1,2,3-triazolo fused triterpenes and their mechanism of inhibiting the proliferation of HL-60 cells” (Eur J Med Chem, 2021).
